{
  "source": "patent US7323260B2",
  "about": "“Lubricant, recording medium and carboxylic acid compound” (Sony Corporation, priority 2003, dated 2008)",
  "experiment": "Evaluation of solubility in solvent",
  "assay_type": "physicochemical",
  "experimental": "Solubility of lubricants which were used in Examples 1 to 11 and Comparative Example 3 in each of ethanol, acetone and toluene was evaluated. Evaluation results of solubility of the lubricants are shown in Table 10 by evaluation criteria as defined as follows: […]\nSolubility of lubricants which were used in Examples 21 to 37 in each of ethanol, acetone and toluene was evaluated. Evaluation results of solubility of lubricants are shown in Table 19 by evaluation criteria as defined as follows: […]",
  "data": [
    {"substance": "C18H37CH(COOC12H25)(CH2)2COOCH2CF2(OCF2)p(OCF(CF3)CF2)qOCF3 [Comparative Example 3]", "values": [
      {"measurement": "solubility in a hydrocarbon type solvent (in words)", "result": "hardly dissolved"}
    ]}
  ]
}
